Measured values from patent US20110150836A1, “METHODS OF TREATING HBV AND HCV INFECTION” (Gilead Sciences, Inc., priority 2009, published 2011).

Tested on: cytokines and interferon-inducible genes
Assay: mRNA expression of cytokines and interferon-inducible genes in whole blood of healthy woodchucks (real time PCR)
Type: in vivo
Experimental: Compound A was administered orally to adult, WHV-negative woodchucks at two different doses. Three male woodchucks received Compound A at 0.05 mg/kg and three other male woodchucks at 0.5 mg/kg. Whole blood samples (4 mls) were collected from each woodchuck prior to dosing at T0, and then at 4, 8, 12, and 24 hours post-dose using EDTA-containing collection tubes.
The induction of an immune response in woodchucks following administration of Compound A was determined by measuring the mRNA expression of cytokines and interferon-inducible genes in whole blood samples collected at different time points. Total RNA was isolated using the QIAamp RNA Blood Mini Kit (Qiagen) according to the manufacturer's specifications. RNA was eluted into 40 μl nuclease-free water and stored at −70° C. The concentration of RNA was determined spectrophotometrically at OD 260 nm. Two μg of RNA were treated with DNase I (Invitrogen) and reverse transcribed to cDNA with MultiScribe Reverse Transcriptase (Applied Biosystems) using random hexamers. Triplicates of 2 μl cDNA were amplified by real time PCR on an ABI PRISM 7000 Sequence Detection instrument (Applied Biosystems) using SYBR GREEN Master Mix (Applied Biosystems) and woodchuck-specific primers. Amplified target genes included IFN-α, IFN-γ, TNF-α, IL-2, IL-6, IL-10 IL-12, 2′5′-OAS, IDO, and MxA. Woodchuck β-actin mRNA expression was used to normalize target gene expression. Transcription levels of woodchuck cytokines and interferon-inducible genes were represented by the formula 2ΔCt, where ΔCt indicates the difference in the threshold cycle between β-actin and target gene expression. Results were further represented as a fold-change from the transcription level at T0.

## CCCCOc1nc(N)c2nc(O)n(Cc3cccc(CN4CCCC4)c3)c2n1 [Compound A, 6-amino-2-butoxy-9-(3-(pyrrolidin-1-ylmethyl)benzyl)-9H-purin-8-ol]
Oral 0.05 mg/kg, 4 hrs
  2′5′-OAS mRNA expression in peripheral blood, Mean: 13.89
  2′5′-OAS mRNA expression, Fold-change from T0: 3.8 fold
  IDO mRNA expression in peripheral blood, Mean: 1.30
  IDO mRNA expression, Fold-change from T0: 1.1 fold
  IFN-a mRNA expression in peripheral blood, Mean: 7.21
  IFN-a mRNA expression, Fold-change from T0: 3.1 fold
  IFN-γ mRNA expression in peripheral blood, Mean: 2.03
  IFN-γ mRNA expression, Fold-change from T0: 1.6 fold
  IL-2 mRNA expression in peripheral blood, Mean: 2.11
  IL-2 mRNA expression, Fold-change from T0: 1.9 fold
  IL-6 mRNA expression in peripheral blood, Mean: 9.75
  IL-6 mRNA expression, Fold-change from T0: 2.3 fold
  IL-10 mRNA expression in peripheral blood, Mean: 4.14
  IL-10 mRNA expression, Fold-change from T0: 1.7 fold
  IL-12 mRNA expression in peripheral blood, Mean: 7.27
  IL-12 mRNA expression, Fold-change from T0: 4.5 fold
  MxA mRNA expression in peripheral blood, Mean: 2.26
  MxA mRNA expression, Fold-change from T0: 1.4 fold
  TNF-a mRNA expression in peripheral blood, Mean: 23.83
  TNF-a mRNA expression, Fold-change from T0: 3.5 fold
Oral 0.05 mg/kg, 8 hrs
  2′5′-OAS mRNA expression in peripheral blood, Mean: 16.96
  2′5′-OAS mRNA expression, Fold-change from T0: 4.8 fold
  IDO mRNA expression in peripheral blood, Mean: 2.05
  IDO mRNA expression, Fold-change from T0: 2.2 fold
  IFN-a mRNA expression in peripheral blood, Mean: 12.99
  IFN-a mRNA expression, Fold-change from T0: 4.2 fold
  IFN-γ mRNA expression in peripheral blood, Mean: 4.34
  IFN-γ mRNA expression, Fold-change from T0: 3.4 fold
  IL-2 mRNA expression in peripheral blood, Mean: 1.74
  IL-2 mRNA expression, Fold-change from T0: 1.5 fold
  IL-6 mRNA expression in peripheral blood, Mean: 10.57
  IL-6 mRNA expression, Fold-change from T0: 2.6 fold
  IL-10 mRNA expression in peripheral blood, Mean: 8.48
  IL-10 mRNA expression, Fold-change from T0: 3.4 fold
  IL-12 mRNA expression in peripheral blood, Mean: 7.35
  IL-12 mRNA expression, Fold-change from T0: 4.7 fold
  MxA mRNA expression in peripheral blood, Mean: 5.93
  MxA mRNA expression, Fold-change from T0: 3.8 fold
  TNF-a mRNA expression in peripheral blood, Mean: 20.72
  TNF-a mRNA expression, Fold-change from T0: 3.0 fold
Oral 0.05 mg/kg, 12 hrs
  2′5′-OAS mRNA expression in peripheral blood, Mean: 54.92
  2′5′-OAS mRNA expression, Fold-change from T0: 15.6 fold
  IDO mRNA expression in peripheral blood, Mean: 10.64
  IDO mRNA expression, Fold-change from T0: 7.7 fold
  IFN-a mRNA expression in peripheral blood, Mean: 3.82
  IFN-a mRNA expression, Fold-change from T0: 1.3 fold
  IFN-γ mRNA expression in peripheral blood, Mean: 2.64
  IFN-γ mRNA expression, Fold-change from T0: 2.0 fold
  IL-2 mRNA expression in peripheral blood, Mean: 2.43
  IL-2 mRNA expression, Fold-change from T0: 2.1 fold
  IL-6 mRNA expression in peripheral blood, Mean: 6.22
  IL-6 mRNA expression, Fold-change from T0: 1.5 fold
  IL-10 mRNA expression in peripheral blood, Mean: 7.35
  IL-10 mRNA expression, Fold-change from T0: 3.0 fold
  IL-12 mRNA expression in peripheral blood, Mean: 21.12
  IL-12 mRNA expression, Fold-change from T0: 12.7 fold
  MxA mRNA expression in peripheral blood, Mean: 18.70
  MxA mRNA expression, Fold-change from T0: 12.5 fold
  TNF-a mRNA expression in peripheral blood, Mean: 35.05
  TNF-a mRNA expression, Fold-change from T0: 5.2 fold
Oral 0.05 mg/kg, 24 hrs
  2′5′-OAS mRNA expression in peripheral blood, Mean: 36.91
  2′5′-OAS mRNA expression, Fold-change from T0: 11.9 fold
  IDO mRNA expression in peripheral blood, Mean: 26.71
  IDO mRNA expression, Fold-change from T0: 25.6 fold
  IFN-a mRNA expression in peripheral blood, Mean: 2.63
  IFN-a mRNA expression, Fold-change from T0: 1.0 fold
  IFN-γ mRNA expression in peripheral blood, Mean: 1.82
  IFN-γ mRNA expression, Fold-change from T0: 1.2 fold
  IL-2 mRNA expression in peripheral blood, Mean: 3.64
  IL-2 mRNA expression, Fold-change from T0: 3.2 fold
  IL-6 mRNA expression in peripheral blood, Mean: 4.30
  IL-6 mRNA expression, Fold-change from T0: 1.1 fold
  IL-10 mRNA expression in peripheral blood, Mean: 6.08
  IL-10 mRNA expression, Fold-change from T0: 2.3 fold
  MxA mRNA expression in peripheral blood, Mean: 117.33
  MxA mRNA expression, Fold-change from T0: 69.3 fold
  TNF-a mRNA expression in peripheral blood, Mean: 20.53
  TNF-a mRNA expression, Fold-change from T0: 3.2 fold
Oral 0.5 mg/kg, 4 hrs
  2′5′-OAS mRNA expression in peripheral blood, Mean: 33.05
  2′5′-OAS mRNA expression, Fold-change from T0: 6.5 fold
  IDO mRNA expression in peripheral blood, Mean: 22.67
  IDO mRNA expression, Fold-change from T0: 9.1 fold
  IFN-a mRNA expression in peripheral blood, Mean: 19.14
  IFN-a mRNA expression, Fold-change from T0: 3.9 fold
  IFN-γ mRNA expression in peripheral blood, Mean: 2.80
  IFN-γ mRNA expression, Fold-change from T0: 2.6 fold
  IL-2 mRNA expression in peripheral blood, Mean: 4.32
  IL-2 mRNA expression, Fold-change from T0: 2.2 fold
  IL-6 mRNA expression in peripheral blood, Mean: 21.84
  IL-6 mRNA expression, Fold-change from T0: 4.6 fold
  IL-10 mRNA expression in peripheral blood, Mean: 4.01
  IL-10 mRNA expression, Fold-change from T0: 1.5 fold
  IL-12 mRNA expression in peripheral blood, Mean: 5.74
  IL-12 mRNA expression, Fold-change from T0: 3.8 fold
  MxA mRNA expression in peripheral blood, Mean: 5.96
  MxA mRNA expression, Fold-change from T0: 3.6 fold
  TNF-a mRNA expression in peripheral blood, Mean: 43.18
  TNF-a mRNA expression, Fold-change from T0: 6.2 fold
Oral 0.5 mg/kg, 8 hrs
  2′5′-OAS mRNA expression in peripheral blood, Mean: 41.13
  2′5′-OAS mRNA expression, Fold-change from T0: 8.3 fold
  IDO mRNA expression in peripheral blood, Mean: 30.62
  IDO mRNA expression, Fold-change from T0: 11.6 fold
  IFN-a mRNA expression in peripheral blood, Mean: 48.85
  IFN-a mRNA expression, Fold-change from T0: 10.4 fold
  IFN-γ mRNA expression in peripheral blood, Mean: 7.81
  IFN-γ mRNA expression, Fold-change from T0: 6.7 fold
  IL-2 mRNA expression in peripheral blood, Mean: 3.12
  IL-2 mRNA expression, Fold-change from T0: 2.0 fold
  IL-6 mRNA expression in peripheral blood, Mean: 18.57
  IL-6 mRNA expression, Fold-change from T0: 4.6 fold
  IL-10 mRNA expression in peripheral blood, Mean: 17.31
  IL-10 mRNA expression, Fold-change from T0: 6.6 fold
  IL-12 mRNA expression in peripheral blood, Mean: 6.86
  IL-12 mRNA expression, Fold-change from T0: 4.2 fold
  MxA mRNA expression in peripheral blood, Mean: 12.86
  MxA mRNA expression, Fold-change from T0: 7.9 fold
  TNF-a mRNA expression in peripheral blood, Mean: 31.19
  TNF-a mRNA expression, Fold-change from T0: 4.5 fold
Oral 0.5 mg/kg, 12 hrs
  2′5′-OAS mRNA expression in peripheral blood, Mean: 884.87
  2′5′-OAS mRNA expression, Fold-change from T0: 185.6 fold
  IDO mRNA expression in peripheral blood, Mean: 89.01
  IDO mRNA expression, Fold-change from T0: 37.0 fold
  IFN-a mRNA expression in peripheral blood, Mean: 7.12
  IFN-a mRNA expression, Fold-change from T0: 1.5 fold
  IFN-γ mRNA expression in peripheral blood, Mean: 4.36
  IFN-γ mRNA expression, Fold-change from T0: 3.8 fold
  IL-6 mRNA expression in peripheral blood, Mean: 6.25
  IL-6 mRNA expression, Fold-change from T0: 1.4 fold
  IL-10 mRNA expression in peripheral blood, Mean: 14.92
  IL-10 mRNA expression, Fold-change from T0: 5.6 fold
  IL-12 mRNA expression in peripheral blood, Mean: 49.93
  IL-12 mRNA expression, Fold-change from T0: 30.1 fold
  MxA mRNA expression in peripheral blood, Mean: 71.77
  MxA mRNA expression, Fold-change from T0: 45.3 fold
  TNF-a mRNA expression in peripheral blood, Mean: 62.30
  TNF-a mRNA expression, Fold-change from T0: 9.0 fold
Oral 0.5 mg/kg, 24 hrs
  2′5′-OAS mRNA expression in peripheral blood, Mean: 64.27
  2′5′-OAS mRNA expression, Fold-change from T0: 14.4 fold
  IDO mRNA expression in peripheral blood, Mean: 1217.20
  IDO mRNA expression, Fold-change from T0: 454.2 fold
  IFN-a mRNA expression in peripheral blood, Mean: 4.15
  IFN-a mRNA expression, Fold-change from T0: 0.9 fold
  IFN-γ mRNA expression in peripheral blood, Mean: 2.16
  IFN-γ mRNA expression, Fold-change from T0: 1.9 fold
  IL-2 mRNA expression in peripheral blood, Mean: 13.38
  IL-2 mRNA expression, Fold-change from T0: 5.9 fold
  IL-6 mRNA expression in peripheral blood, Mean: 4.75
  IL-6 mRNA expression, Fold-change from T0: 1.2 fold
  IL-10 mRNA expression in peripheral blood, Mean: 8.74
  IL-10 mRNA expression, Fold-change from T0: 3.3 fold
  IL-12 mRNA expression in peripheral blood, Mean: 11.55
  IL-12 mRNA expression, Fold-change from T0: 7.0 fold
  MxA mRNA expression in peripheral blood, Mean: 758.52
  MxA mRNA expression, Fold-change from T0: 518.8 fold
  TNF-a mRNA expression in peripheral blood, Mean: 30.71
  TNF-a mRNA expression, Fold-change from T0: 4.5 fold
Oral 0.05 and 0.5 mg/kg
  mRNA expression of IFN-α, IFN-γ, TNF-alpha, IL-2, IL-6, IL-10, IL-12, 2′5′-OAS, IDO and MxA: induced dose-dependent increases in the mRNA expression
Oral dosing
  time of maximal mRNA expression of IFN-α, IFN-γ, IL-6, and IL-10: 8 hours post-dose
  time of maximal mRNA expression of IL-2, IDO, and MxA: 24 hours post-dose
  time of maximal mRNA expression of TNF-α, IL-12, and 2′5′-OAS: 12 hours post-dose
